# Entries after “also recorded” stand apart in the source; their conditions may differ. Structures can show the parent of a compound that is named as a salt.
# What was measured:
# MECP2-deficient neurons [1] = test: Quantification of co-localized synaptic puncta (SYN1/PSD-95) on iPS cell-derived neurons; format: cell-based, human; conditions: vs neurons treated without reverse transcriptase inhibitors, NVP 400 nM
# Description: Specifically, differentiated nervous system cells derived from normal human iPS cells and iPS cells obtained from patients suffered from Rett syndrome (hereinafter referred to as MECP2-deficient or MECP2-KO because the MECP2 gene was inactivated) were cultured and differentiated into cortical neurons. For differentiation into neurospheres (neural stem cell clusters), NPCs were dissociated from the plate using StemPro Accutase (Life Technologies), and 3-5 million cells were then cultured in suspension on 6-well plates in a shaker incubator at 95 r.p.m. at 37° C. for 48 hours in neural culture (NG) media (DMEM/F12, 1% Glutamax (Life Technologies), 1% N2 Neuroplex (Gemini Bio-products), 2% Gem21 NeuroPlex (Gemini Bio-products), 1% penicillin-streptomycin) supplemented with bFGF (basic Fibroblast Growth Factor, R&D Systems). […]
# Quantification of synaptic spots was performed as follows.
# Five- to six-week-old neurons were fixed and stained for the following markers: SYN1, postsynaptic density protein 95 (PSD-95), and dendritic marker (MAP2). A fluorescence microscope (Z1 Axio Observer Apotome Zeiss) was used to image the slides by compiling Z stack images taken from changing focus distances. Co-localized SYN1 (presynaptic) and PSD-95 (postsynaptic) were quantified using the compiled Z stack image. […]
# [2] = tested on: MECP2-deficient organoids; test: Measurement of cortical organoid diameter; format: cell-based, human; conditions: after 56 days of differentiation
# Description: The cultured iPS cells were dissociated from the plate using a 1:1 Dulbecco's phosphate-buffered saline (DPBS, Fisher Scientific) and StemPro Accutase solution, transferred to 6-well plates, and kept in suspension. Neural induction media consisted of DMEM/F12, 1% Glutamax, 1% N2 Neuroplex, 1% non-essential amino acids (Gibco), 1% penicillin-streptomycin, 1 μM Dorsomorphin (R&D Systems), and 10 μM SB431542 (SB, Stemgent) Neural proliferation media consisted of Neurobasal media (Life Technologies), 2% Gem21 Neuroplex, 1% non-essential amino acids, 1% Glutamax, 20 ng/mL epidermal growth factor (EGF, Peprotech), and 20 ng/mL bFGF. For neuronal maturation, the cells were kept in the same media but the growth factors were withdrawn. Organoid results are combined from four separate batches of differentiation.
# (§2) Next, 3TC and d4T were added to the obtained differentiated neural cell culture. The reverse-transcriptase inhibitors for cultured cells were prepared for as follows: Lamivudine (3TC, Sigma-Aldrich) was prepared in dimethyl sulfoxide (DMSO, Sigma Aldrich) and the preparation was added to media so that the final concentration of 3TC was adjusted into 10 μM. […]
# Cortical organoids were imaged on an Evos FL Imagine System (ThermoFisher) at 4× magnification. The images were uploaded to Image J and the diameter of each organoid was determined by the program's length measurement function.
# L1 reverse transcriptase = L1 reverse transcriptase (Homo sapiens, UniProt O00370); conditions: Dai et al., BMC Biochemistry 2011, 12:18; cited from earlier work
# Chain of L1 reverse transcriptase (O00370 whole entry, looked up): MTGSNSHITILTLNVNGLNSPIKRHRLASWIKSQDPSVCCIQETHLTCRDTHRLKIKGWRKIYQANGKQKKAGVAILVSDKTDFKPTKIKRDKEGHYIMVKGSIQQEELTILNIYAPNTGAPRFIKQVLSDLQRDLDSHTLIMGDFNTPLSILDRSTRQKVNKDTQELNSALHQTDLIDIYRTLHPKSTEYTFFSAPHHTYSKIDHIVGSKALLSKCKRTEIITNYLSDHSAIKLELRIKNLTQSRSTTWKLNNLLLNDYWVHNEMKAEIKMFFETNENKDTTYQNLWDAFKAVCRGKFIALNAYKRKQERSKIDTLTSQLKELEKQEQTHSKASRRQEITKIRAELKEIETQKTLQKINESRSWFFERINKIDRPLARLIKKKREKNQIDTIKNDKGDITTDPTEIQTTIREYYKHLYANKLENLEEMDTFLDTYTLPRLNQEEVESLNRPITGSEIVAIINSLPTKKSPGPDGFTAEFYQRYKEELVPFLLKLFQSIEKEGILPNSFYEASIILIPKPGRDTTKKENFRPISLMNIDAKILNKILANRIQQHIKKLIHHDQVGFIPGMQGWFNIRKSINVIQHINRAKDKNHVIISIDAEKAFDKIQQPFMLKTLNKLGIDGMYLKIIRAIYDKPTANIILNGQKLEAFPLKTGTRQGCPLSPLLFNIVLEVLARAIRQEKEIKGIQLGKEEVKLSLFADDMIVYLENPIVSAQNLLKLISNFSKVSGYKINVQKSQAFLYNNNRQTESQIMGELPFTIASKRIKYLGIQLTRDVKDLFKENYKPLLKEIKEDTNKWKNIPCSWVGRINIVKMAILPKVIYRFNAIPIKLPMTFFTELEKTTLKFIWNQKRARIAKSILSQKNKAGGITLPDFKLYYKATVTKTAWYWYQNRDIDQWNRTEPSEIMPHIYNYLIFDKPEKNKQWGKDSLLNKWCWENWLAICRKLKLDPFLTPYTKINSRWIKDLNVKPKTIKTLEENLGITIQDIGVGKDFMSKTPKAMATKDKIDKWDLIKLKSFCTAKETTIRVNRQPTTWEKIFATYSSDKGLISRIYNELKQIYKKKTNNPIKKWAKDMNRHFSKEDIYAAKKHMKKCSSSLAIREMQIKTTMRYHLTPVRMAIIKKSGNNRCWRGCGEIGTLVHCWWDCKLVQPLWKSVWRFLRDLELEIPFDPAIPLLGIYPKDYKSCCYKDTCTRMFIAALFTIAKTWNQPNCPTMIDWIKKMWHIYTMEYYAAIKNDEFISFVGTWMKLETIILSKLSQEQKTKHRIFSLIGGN
# [3] = target: HIV reverse transcriptase (Human immunodeficiency virus type 1 group M subtype B, UniProt P04585); conditions: cited from earlier work
# MECP2-deficient neurons [4] = test: Morphological analysis of iPS cell-derived neurons (Neurolucida tracing, Scholl analysis); format: cell-based, human; conditions: 3TC 10 μM in combination with d4T 1 μM, NVP 400 nM
# Description: Specifically, differentiated nervous system cells derived from normal human iPS cells and iPS cells obtained from patients suffered from Rett syndrome (hereinafter referred to as MECP2-deficient or MECP2-KO because the MECP2 gene was inactivated) were cultured and differentiated into cortical neurons. […] For neuronal maturation, the cells were kept in the same media but the growth factors were withdrawn.
# The differentiated nervous system cells were maintained for 8 weeks after FGF withdraw.
# as §2
# Cultured NPCs were transduced with a lentivirus backbone containing Synapsin 1 (SYN) promoter upstream of an EGFP reporter (Nageshappa et al., Mol Psychiatry 21, 178-188 (2016)). […] 11 (MBF Bioscience, Williston, VT) was used to quantify the morphology of the neurons and then to obtain the sum of length of all neurites and dendrites per traced neuron. […] Neuronal complexity was determined by recording the number of intersections within each ring.
# [5] = tested on: MECP2-deficient spheroids; test: Multi-electrode array (MEA) neural network activity of spheroids; format: cell-based, human; conditions: MEA after 4 weeks, chronic treatment
# Description: Next, 3TC and d4T were added to the obtained differentiated neural cell culture. The reverse-transcriptase inhibitors for cultured cells were prepared for as follows: Lamivudine (3TC, Sigma-Aldrich) was prepared in dimethyl sulfoxide (DMSO, Sigma Aldrich) and the preparation was added to media so that the final concentration of 3TC was adjusted into 10 μM. Stavudine (d4T, Sigma-Aldrich) was suspended in water and a final concentration of 1 μM d4T was used in combination with 3TC. […] Control cells (CTRL) contained 10 pjM DMSO as a vehicle control.
# The NPCs used to generate spheroids were chronically treated under their respective conditions and plated on multi-electrode array (MEA) planes to measure neural network activity. MEA plates were recorded weekly and analysis of spontaneous neural activity was performed after 4 weeks.
# Multi-electrode array (MEA) was performed as follows.
# Twelve-well MEA plates (Axion Biosystems) were coated with 100 μg/mL poly-L-ornithine (Sigma-Aldrich) and 5 μg/mL laminin (Life Technologies). Neurospheres generated from NPCs were placed in the center of the MEA wells and the electrodes were fully covered. Neurospheres were plated in NG media supplemented with 1% FBS. […] Media was changed twice a week and recordings were measured one day after the media was changed. […]
# L1 = test: L1-EGFP vector assay in HEK293; format: cell-based, human; conditions: HEK293 with L1-EGFP vector, 20 μM, four days
# Description: The reverse transcriptase inhibitors 3TC, d4T and Tenofovir disoproxil Fumarate (TDF), QA-2704, Combi-Blocks) were added to cell lines derived from human fetal kidney cells (HEK293) to a final concentration of 20 μM, and the cells were introduced with a vector (L1-EGFP, Macia et al. Genome Res 27, 335-348 (2017)) in which EGFP protein was expressed in only cells with activated L1. Four days after incubating, immunostaining was performed using antibodies against GFP and Hoechest, which stains nuclei, and images were taken using a fluorescence microscope (Leica AF600) with a 10× objective.
# MeCP2-KO mice [6] = test: Neurological symptom scoring in MeCP2-KO mice; format: in vivo; conditions: 2 mg/ml in drinking water starting at week 4, observed up to 10 weeks, vs vehicle
# Description: Treatment with reverse transcription inhibitors was performed as follows.
# (§1) MeCP2-KO mice (C57BL/6 background) were obtained from Mutant Mouse Resource & Research Centers (MMRRC) (Chen, RZ, Akbarian S, Tudor M and Jaenisch R. Nat Genet 27, 327-331 (2001)). All aspects of animal care and treatment were carried out according to the guidelines of the Experimental Animal Care Committee of Kyushu University.
# Mice were maintained in a 12-hour light/dark cycle with free access to food and water. MeCP2-KO mice were divided into three groups of animals, each of which was administered with 3TC (QA-4615, Combi-blocks), d4T (d3580, Tokyo Chemical Industry Co., Ltd.) and vehicle. […]
# Neurological symptoms of the mice were scored as described in Guy J, Gan J, Selfridge J, Cobb S and Bird A. Science 315, 1143-1147 (2007). In brief, the mice bred as described above were scored blind to genotype and treatment status, focusing on the six symptoms of mobility, gait, hindlimb clasping, tremor, breathing, and general condition. Each of the six symptoms was scored from 0 to 2:0 corresponds to symptom's being absent or the same as in the wild-type, 1 corresponds to symptom's being present, and 2 corresponds to severe symptom.
# Six neurological symptoms scored in each of the three groups of the mice (vehicle, 15 mice; 3TC, 10 mice; d4T, 10 mice) were summed, and observed and recorded for up to 10 weeks.
# MeCP2-KO mice [7] = test: Survival of MeCP2-KO mice; format: in vivo; conditions: 2 mg/ml in drinking water starting at week 4, vs vehicle
# Description: as §1
# Mice were maintained in a 12-hour light/dark cycle with free access to food and water. MeCP2-KO mice were divided into three groups of animals, each of which was administered with 3TC (QA-4615, Combi-blocks), d4T (d3580, Tokyo Chemical Industry Co., Ltd.) and vehicle. The mice were orally administered with 3TC (2 mg/ml), d4T (2 mg/ml) and vehicle in drinking water, respectively, starting at week 4. As a control, the vehicle-treated MeCP2-KO mice were used. All mice were observed daily.
# Next, the survival rate of the mice in each group (vehicle, 20 mice; 3TC, 13 mice; d4T, 13 mice) was examined.
compound,measurement,setting,value
"Cc1ccnc2c1NC(=O)c1cccnc1N2C1CC1 [NVP, Nevirapine]",co-localized puncta (synapse formation),MECP2-deficient neurons [1],not seen
same,cortical organoid diameter,[2],not seen
same,inhibitory activity for L1 reverse transcriptase,L1 reverse transcriptase,does not have any inhibitory activity; also recorded: not to have any L1 reverse transcriptase inhibitory activity
same,inhibitory activity for HIV reverse transcriptase,[3],has an HIV reverse transcriptase inhibitory activity
same,cell body area,MECP2-deficient neurons [4],this rescue was not seen
same,number of branch points,MECP2-deficient neurons [4],this rescue was not seen
same,weighted mean firing rate,[5],significantly decreased
"CC(C)OC(=O)OCOP(=O)(CO[C@H](C)Cn1cnc2c(N)ncnc21)OCOC(=O)OC(C)C [TDF, Tenofovir disoproxil Fumarate]",percentage of EGFP-positive cells,L1,decrease
"Cc1cn([C@H]2C=C[C@@H](CO)O2)c(=O)[nH]c1=O [d4T, stavudine]",Rett symptoms (summed score of six neurological symptoms),MeCP2-KO mice [6],Significant reductions
same,percentage of EGFP-positive cells,L1,decrease
same,survival rate,MeCP2-KO mice [7],Significant life extensions
CC(C)Nc1cccnc1N1CCN(C(=O)c2cc3cc(NS(C)(=O)=O)ccc3[nH]2)CC1 [delavirdine],inhibitory activity for L1 reverse transcriptase,L1 reverse transcriptase,have an inhibitory activity
"O=C1Nc2ccc(Cl)cc2[C@@](C#CC2CC2)(C(F)(F)F)O1 [efavirenz, Efavirenz]",inhibitory activity for L1 reverse transcriptase,L1 reverse transcriptase,have an inhibitory activity

# From patent publication US20240277712A1, “TREATMENT AND PREVENTION OF DEVELOPMENTAL DISORDERS AND MENTAL DISEASES” (KYUSHU UNIVERSITY, NATIONAL UNIVERSITY CORPORATION, priority 2020, published 2024)
